Residues, ends and D or L forms follow the SMILES beside them.
Molecular target: IL-17RA/IL17RC dimerization induced by IL-17A (Homo sapiens, UniProt Q16552)
Experiment: IL-17RA/IL17RC dimerization assay in response to IL-17A (PathHunter Cytokine Receptor Assay)
Type: cell-based
Conditions: IL-17A at EC80; read-out: IC50 in IL-17RA/IL7RC dimerization assay
In short: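 Receptor dimerization was read as chemiluminescence from complemented β-galactosidase after IL-17A at EC80 concentration for 6–16 h at 37 °C. Peptides were added 60 min before agonist, at 37 °C or room temperature, with 1% vehicle. Percent inhibition used the EC80-stimulated and vehicle wells as references.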

IL-17RA/IL17RC dimerization induced by IL-17A, sequence (Q16552 24-155): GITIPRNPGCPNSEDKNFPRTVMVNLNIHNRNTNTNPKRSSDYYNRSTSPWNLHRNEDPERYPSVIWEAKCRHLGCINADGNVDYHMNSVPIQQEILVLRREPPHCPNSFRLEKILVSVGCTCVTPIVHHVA

| IC50 | Compound |
| --- | --- |
| < 10 µM | CC[C@H](C)[C@H](NC(C)=O)C(=O)N[C@@H](Cc1c[nH]cn1)C(=O)N[C@H](C(=O)N[C@H](C(=O)N[C@H](C(=O)N1CCC[C@H]1C(=O)N[C@@H](C)C(=O)N[C@@H](CC(=O)O)C(=O)N[C@@H](CC(C)C)C(=O)N[C@@H](Cc1c[nH]c2ccccc12)C(=O)N[C@@H](CC(=O)O)C(=O)N[C@@H](Cc1ccccc1)C(=O)N[C@H](C(=O)N[C@@H](CC(N)=O)C(=O)N[C@@H](CCCCN)C(N)=O)[C@@H](C)CC)[C@@H](C)CC)[C@@H](C)O)C(C)C [SEQ ID NO: 210] (Ac-IHVTIPADLWDFINK-NH2) |
| < 10 µM | CC[C@H](C)[C@H](NC(C)=O)C(=O)N[C@@H](Cc1c[nH]cn1)C(=O)N[C@H](C(=O)N[C@H](C(=O)N[C@H](C(=O)N1CCC[C@H]1C(=O)N[C@@H](C)C(=O)N[C@@H](CC(=O)O)C(=O)N[C@@H](CC(C)C)C(=O)N[C@@H](Cc1c[nH]c2ccccc12)C(=O)N[C@@H](CC(=O)O)C(=O)N[C@@H](Cc1ccc(O)cc1)C(=O)N[C@H](C(=O)N[C@@H](CC(N)=O)C(=O)N[C@@H](CCCCN)C(N)=O)[C@@H](C)CC)[C@@H](C)CC)[C@@H](C)O)C(C)C [SEQ ID NO: 211] (Ac-IHVTIPADLWDYINK-NH2) |
| < 10 µM | CC[C@H](C)[C@H](NC(C)=O)C(=O)N[C@@H](Cc1c[nH]cn1)C(=O)N[C@H](C(=O)N[C@H](C(=O)N[C@H](C(=O)N1CCC[C@H]1C(=O)N[C@@H](C)C(=O)N[C@@H](CC(=O)O)C(=O)N[C@@H](CC(C)C)C(=O)N[C@@H](Cc1c[nH]c2ccccc12)C(=O)N[C@@H](CC(=O)O)C(=O)N[C@@H](Cc1c[nH]c2ccccc12)C(=O)N[C@@H](CCC(=O)O)C(=O)N[C@@H](CC(N)=O)C(=O)N[C@@H](CCCCN)C(N)=O)[C@@H](C)CC)[C@@H](C)O)C(C)C [SEQ ID NO: 212] (Ac-IHVTIPADLWDWENK-NH2) |
| < 10 µM | CC[C@H](C)[C@H](NC(C)=O)C(=O)N[C@@H](Cc1c[nH]cn1)C(=O)N[C@H](C(=O)N[C@H](C(=O)N[C@H](C(=O)N1CCC[C@H]1C(=O)N[C@@H](C)C(=O)N[C@@H](CC(=O)O)C(=O)N[C@@H](CC(C)C)C(=O)N[C@@H](Cc1c[nH]c2ccccc12)C(=O)N[C@@H](CC(=O)O)C(=O)N[C@@H](Cc1c[nH]c2ccccc12)C(=O)N[C@@H](CCCCN)C(=O)N[C@@H](CC(N)=O)C(=O)N[C@@H](CCCCN)C(N)=O)[C@@H](C)CC)[C@@H](C)O)C(C)C [SEQ ID NO: 213] (Ac-IHVTIPADLWDWKNK-NH2) |
| < 10 µM | CC[C@H](C)[C@H](NC(C)=O)C(=O)N[C@@H](Cc1c[nH]cn1)C(=O)N[C@H](C(=O)N[C@H](C(=O)N[C@H](C(=O)N1CCC[C@H]1C(=O)N[C@@H](C)C(=O)N[C@@H](CC(=O)O)C(=O)N[C@@H](CC(C)C)C(=O)N[C@@H](Cc1c[nH]c2ccccc12)C(=O)N[C@@H](CC(=O)O)C(=O)N[C@@H](Cc1c[nH]c2ccccc12)C(=O)N[C@@H](C)C(=O)N[C@@H](CC(N)=O)C(=O)N[C@@H](CCCCN)C(N)=O)[C@@H](C)CC)[C@@H](C)O)C(C)C [SEQ ID NO: 214] (Ac-IHVTIPADLWDWANK-NH2) |
| < 10 µM | CC[C@H](C)[C@H](NC(C)=O)C(=O)N[C@@H](Cc1c[nH]cn1)C(=O)N[C@H](C(=O)N[C@H](C(=O)N[C@H](C(=O)N1CCC[C@H]1C(=O)N[C@@H](C)C(=O)N[C@@H](CC(=O)O)C(=O)N[C@@H](CC(C)C)C(=O)N[C@@H](Cc1c[nH]c2ccccc12)C(=O)N[C@@H](CC(=O)O)C(=O)N[C@@H](Cc1c[nH]c2ccccc12)C(=O)NCC(=O)N[C@@H](CC(N)=O)C(=O)N[C@@H](CCCCN)C(N)=O)[C@@H](C)CC)[C@@H](C)O)C(C)C [SEQ ID NO: 215] (Ac-IHVTIPADLWDWGNK-NH2) |
| < 10 µM | CC[C@H](C)[C@H](NC(C)=O)C(=O)N[C@@H](Cc1c[nH]cn1)C(=O)N[C@H](C(=O)N[C@H](C(=O)N[C@H](C(=O)N1CCC[C@H]1C(=O)N[C@@H](C)C(=O)N[C@@H](CC(=O)O)C(=O)N[C@@H](CC(C)C)C(=O)N[C@@H](Cc1c[nH]c2ccccc12)C(=O)N[C@@H](CC(=O)O)C(=O)N[C@@H](Cc1c[nH]c2ccccc12)C(=O)N[C@@H](CC(C)C)C(=O)N[C@@H](CC(N)=O)C(=O)N[C@@H](CCCCN)C(N)=O)[C@@H](C)CC)[C@@H](C)O)C(C)C [SEQ ID NO: 216] (Ac-IHVTIPADLWDWLNK-NH2) |
| < 10 µM | CC[C@H](C)[C@H](NC(C)=O)C(=O)N[C@@H](Cc1c[nH]cn1)C(=O)N[C@H](C(=O)N[C@H](C(=O)N[C@H](C(=O)N1CCC[C@H]1C(=O)N[C@@H](C)C(=O)N[C@@H](CC(=O)O)C(=O)N[C@@H](CC(C)C)C(=O)N[C@@H](Cc1c[nH]c2ccccc12)C(=O)N[C@@H](CC(=O)O)C(=O)N[C@@H](Cc1c[nH]c2ccccc12)C(=O)N1CCC[C@H]1C(=O)N[C@@H](CC(N)=O)C(=O)N[C@@H](CCCCN)C(N)=O)[C@@H](C)CC)[C@@H](C)O)C(C)C [SEQ ID NO: 217] (Ac-IHVTIPADLWDWPNK-NH2) |
| < 10 µM | CC[C@H](C)[C@H](NC(C)=O)C(=O)N[C@@H](Cc1c[nH]cn1)C(=O)N[C@H](C(=O)N[C@H](C(=O)N[C@H](C(=O)N1CCC[C@H]1C(=O)N[C@@H](C)C(=O)N[C@@H](CC(=O)O)C(=O)N[C@@H](CC(C)C)C(=O)N[C@@H](Cc1c[nH]c2ccccc12)C(=O)N[C@@H](CC(=O)O)C(=O)N[C@@H](Cc1c[nH]c2ccccc12)C(=O)N[C@@H](Cc1ccccc1)C(=O)N[C@@H](CC(N)=O)C(=O)N[C@@H](CCCCN)C(N)=O)[C@@H](C)CC)[C@@H](C)O)C(C)C [SEQ ID NO: 218] (Ac-IHVTIPADLWDWFNK-NH2) |
| < 10 µM | CC[C@H](C)[C@H](NC(C)=O)C(=O)N[C@@H](Cc1c[nH]cn1)C(=O)N[C@H](C(=O)N[C@H](C(=O)N[C@H](C(=O)N1CCC[C@H]1C(=O)N[C@@H](C)C(=O)N[C@@H](CC(=O)O)C(=O)N[C@@H](CC(C)C)C(=O)N[C@@H](Cc1c[nH]c2ccccc12)C(=O)N[C@@H](CC(=O)O)C(=O)N[C@@H](Cc1c[nH]c2ccccc12)C(=O)N[C@@H](Cc1ccc(O)cc1)C(=O)N[C@@H](CC(N)=O)C(=O)N[C@@H](CCCCN)C(N)=O)[C@@H](C)CC)[C@@H](C)O)C(C)C [SEQ ID NO: 219] (Ac-IHVTIPADLWDWYNK-NH2) |
| < 10 µM | CC[C@H](C)[C@H](NC(C)=O)C(=O)N[C@@H](Cc1c[nH]cn1)C(=O)N[C@H](C(=O)N[C@H](C(=O)N[C@H](C(=O)N1CCC[C@H]1C(=O)N[C@@H](C)C(=O)N[C@@H](CC(=O)O)C(=O)N[C@@H](CC(C)C)C(=O)N[C@@H](Cc1c[nH]c2ccccc12)C(=O)N[C@@H](CC(=O)O)C(=O)N[C@@H](Cc1c[nH]c2ccccc12)C(=O)N[C@H](C(=O)N[C@@H](CCC(N)=O)C(=O)N[C@@H](CCCCN)C(N)=O)[C@@H](C)CC)[C@@H](C)CC)[C@@H](C)O)C(C)C [SEQ ID NO: 220] (Ac-IHVTIPADLWDWIQK-NH2) |
| < 10 µM | CC[C@H](C)[C@H](NC(C)=O)C(=O)N[C@@H](Cc1c[nH]cn1)C(=O)N[C@H](C(=O)N[C@H](C(=O)N[C@H](C(=O)N1CCC[C@H]1C(=O)N[C@@H](C)C(=O)N[C@@H](CC(=O)O)C(=O)N[C@@H](CC(C)C)C(=O)N[C@@H](Cc1c[nH]c2ccccc12)C(=O)N[C@@H](CC(=O)O)C(=O)N[C@@H](Cc1c[nH]c2ccccc12)C(=O)N[C@H](C(=O)N[C@@H](CC(=O)O)C(=O)N[C@@H](CCCCN)C(N)=O)[C@@H](C)CC)[C@@H](C)CC)[C@@H](C)O)C(C)C [SEQ ID NO: 221] (Ac-IHVTIPADLWDWIDK-NH2) |
| < 10 µM | CC[C@H](C)[C@H](NC(C)=O)C(=O)N[C@@H](Cc1c[nH]cn1)C(=O)N[C@H](C(=O)N[C@H](C(=O)N[C@H](C(=O)N1CCC[C@H]1C(=O)N[C@@H](C)C(=O)N[C@@H](CC(=O)O)C(=O)N[C@@H](CC(C)C)C(=O)N[C@@H](Cc1c[nH]c2ccccc12)C(=O)N[C@@H](CC(=O)O)C(=O)N[C@@H](Cc1c[nH]c2ccccc12)C(=O)N[C@H](C(=O)N[C@@H](CC(N)=O)C(=O)N[C@@H](Cc1c[nH]cn1)C(N)=O)[C@@H](C)CC)[C@@H](C)CC)[C@@H](C)O)C(C)C [SEQ ID NO: 222] (Ac-IHVTIPADLWDWINH-NH2) |
| < 10 µM | CC[C@H](C)[C@H](NC(C)=O)C(=O)N[C@@H](Cc1c[nH]cn1)C(=O)N[C@H](C(=O)N[C@H](C(=O)N[C@H](C(=O)N1CCC[C@H]1C(=O)N[C@@H](C)C(=O)N[C@@H](CC(=O)O)C(=O)N[C@@H](CC(C)C)C(=O)N[C@@H](Cc1c[nH]c2ccccc12)C(=O)N[C@@H](CC(=O)O)C(=O)N[C@@H](Cc1c[nH]c2ccccc12)C(=O)N[C@H](C(=O)N[C@@H](CC(N)=O)C(=O)N[C@@H](CC(=O)O)C(N)=O)[C@@H](C)CC)[C@@H](C)CC)[C@@H](C)O)C(C)C [SEQ ID NO: 223] (Ac-IHVTIPADLWDWIND-NH2) |
| < 10 µM | CC(=O)N[C@H](C(=O)N[C@@H](Cc1c[nH]cn1)C(=O)N[C@H](C(=O)N[C@H](C(=O)N[C@H](C(=O)N1CCC[C@H]1C(=O)N[C@@H](CCC(N)=O)C(=O)N[C@@H](CCC(=O)O)C(=O)N[C@@H](CC(C)C)C(=O)N[C@@H](Cc1c[nH]c2ccccc12)C(=O)N[C@@H](CCC(=O)O)C(=O)N[C@@H](Cc1c[nH]c2ccccc12)C(=O)N[C@H](C(=O)N[C@@H](CCCNC(=N)N)C(=O)N[C@@H](CCCNC(=N)N)C(N)=O)C(C)C)C(C)C)[C@@H](C)O)C(C)C)C(C)C [SEQ ID NO: 224] (Ac-VHVTVPQELWEWVRR-NH2) |
| < 10 µM | CC(=O)N[C@H](C(=O)N[C@@H](Cc1c[nH]cn1)C(=O)N[C@H](C(=O)N[C@H](C(=O)N[C@H](C(=O)N1CCC[C@H]1C(=O)N[C@@H](CCC(N)=O)C(=O)N[C@@H](CCC(=O)O)C(=O)N[C@@H](CC(C)C)C(=O)N[C@@H](Cc1ccccc1)C(=O)N[C@@H](CCC(=O)O)C(=O)N[C@@H](Cc1c[nH]c2ccccc12)C(=O)N[C@H](C(=O)N[C@@H](CCCNC(=N)N)C(=O)N[C@@H](CCCNC(=N)N)C(N)=O)C(C)C)C(C)C)[C@@H](C)O)C(C)C)C(C)C [SEQ ID NO: 225] (Ac-VHVTVPQELFEWVRR-NH2) |

Reference: patent US11236129B2, “IL-17A binding peptides and medical uses thereof” (Dompe' Farmaceutici S.P.A., priority 2018, dated 2022)
